Where a SMILES comes first, the peptide text is derived from it. Bridges are numbered along the chain shown (N, C = ends).
Experiments:
human PAC1 = molecular target: T1, human PAC1 (Homo sapiens, UniProt P41586); test: Calcium influx assay, antagonist activity against PACAP-PAC1 signaling; assay type: cell-based; conditions: ligand PACAP (35 nM) at EC80; CHO-K1 cells; n = 4 wells, ± S.E.M; read-out: Ca influx assay [IC50 (nM)] PAC1
T1 construct: host or cells: CHO-K1
T1 sequence (P41586 21-468): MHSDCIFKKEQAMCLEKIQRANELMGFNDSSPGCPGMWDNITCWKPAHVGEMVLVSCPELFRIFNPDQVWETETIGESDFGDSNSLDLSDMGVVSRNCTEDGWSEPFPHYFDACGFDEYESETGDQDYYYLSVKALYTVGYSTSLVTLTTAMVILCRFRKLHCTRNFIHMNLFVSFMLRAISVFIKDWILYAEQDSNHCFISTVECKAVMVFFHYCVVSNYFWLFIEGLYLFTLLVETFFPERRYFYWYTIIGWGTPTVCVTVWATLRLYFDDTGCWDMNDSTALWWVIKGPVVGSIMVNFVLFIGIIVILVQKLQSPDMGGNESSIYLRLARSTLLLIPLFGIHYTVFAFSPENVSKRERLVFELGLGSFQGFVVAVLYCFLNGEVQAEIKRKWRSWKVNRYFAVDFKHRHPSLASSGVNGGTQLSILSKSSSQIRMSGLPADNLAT
Method: Evaluation of antagonist activities of peptides against VIP-VIPR1, VIP-VIPR2, and PACAP-PAC1 signaling pathways and agonistic activity of KS-133 at VIPR2 was carried out by Eurofins DiscoverX (Fremont, CA, United States). Intracellular calcium mobilization was monitored using a calcium-sensitive dye loaded in CHO-K1 cells expressing human VIPR1 (ITEM 86-0030P-2243AN), VIPR2 (ITEM 86-0030P-2244AN), and PAC1 (ITEM 86-0030P-2066AN). The cells were preincubated with antagonistic peptides for 30 min at room temperature in the dark. After addition of the ligand at EC80, calcium mobilization was immediately monitored by FLIPR Tetra for 2 min. Cyclic AMP production in CHO-K1 cells expressing human VIPR2 was evaluated using HitHunter® cAMP assays (antagonist mode: ITEM 86-0007P-2362AN; agonist mode: ITEM 86-0007P-2362AG). The cells were preincubated with antagonistic peptides for 30 min at room temperature. After addition of the ligand at EC80, cells were further incubated for 30 min at room temperature. Cells were lysed and the cAMP content of the cell lysate was determined by the β-galactosidase-based enzyme fragment complementation assay ([Eglen, 2002]). IC50 values were estimated by the following equation: IC50 = 10^[Log(A/B) × (50–D)/(C–D) + Log(B)], where A is the concentration at >50% inhibition, B is the concentration at <50% inhibition, C is the inhibition rate at concertation A, and D is the inhibition rate at concertation B.
First, the antagonistic activities of parental VIpep-3, KS-132, KS-133 (monocyclic) (no bridging between Lys^7 and Asp^11), and KS-133 against human VIPR1, VIPR2, and PAC1 were evaluated by a calcium influx assay. After antagonistic peptide treatment for 30 min, ligand at a concentration of EC80 was added to the cells and then calcium signaling was measured.
FIGURE 3 Antagonistic/agonistic activities of peptides in the calcium influx and cAMP assays. For evaluation of the antagonistic activity, the cells were preincubated with antagonistic peptides for 30 min. In the calcium influx assay, after addition of ligand at EC80, calcium mobilization was monitored immediately (see details in the Methods section) (n = 4 wells for each treatment). In the cAMP assay, after a 30 min incubation with the ligand at EC80, cAMP production in cells was measured (see details in the Methods section) (n = 4 wells for each treatment).

[1] = tested on: prefrontal pyramidal neurons; test: Golgi-Cox dendritic morphology and Sholl analysis of prefrontal cortex neurons; assay type: in vivo, mouse
Method: For behavioral experiments, all litters were randomly divided into Ro 25-1553- and PBS-treated groups. From P1 to P14, mice were injected s.c. once daily with Ro 25-1553 at a dose of 0.07 nmol/g ([Ago et al., 2015]). Mice treated with PBS from P1 to P14 were used as the control. KS-133 or the vehicle was simultaneously injected with Ro 25-1553 or PBS. Animals were weaned at P21 and divided by gender at P28. We used male mice exclusively to minimize any potential variability due to sex-specific effects on behavioral performance. […]
Dendritic morphological analysis was performed on mice after the novel object recognition test and samples were collected within 10 min of dissection. […] Morphologies of apical and basal dendrites were quantified in three dimensions using the Neurolucida neuron tracing system (MBF Bioscience, Williston, VT) with the experimenter blinded to the treatment. […]
FIGURE 6 Alterations in the dendritic morphology of prefrontal pyramidal neurons in mice treated with Ro 25-1553 and KS-133 during the early postnatal period. […] The number of intersections of dendrites with 7.5-μm concentric spheres centered on the soma was measured by Sholl analysis. Results are expressed as the mean ± S.E.M. of 40 neurons from five mice per group. *p < 0.05, **p < 0.01, ***p < 0.001.

- IC50 (human PAC1): > 5000 nM
SMILES: CC[C@H](C)[C@H](NC(=O)[C@H](CC(C)C)NC(=O)[C@@H]1CC(=O)NCCCC[C@@H]2NC(=O)[C@@H]3CCCN3C(=O)[C@H](CC(C)C)NC(=O)[C@H](Cc3ccc(O)cc3)NC(=O)[C@@H]3CCCN3C(=O)[C@@H]3CCCN3C(=O)[C@@H](NC(C)=O)CSSC[C@H](NC(=O)[C@H](CC(C)C)NC(=O)[C@H](Cc3ccc(O)cc3)NC2=O)C(=O)N1)C(N)=O [KS-133, Ac-c[Cys-Pro-Pro-Tyr-Leu-Pro-c(Lys-Tyr-Leu-Cys]-Asp)-Leu-Ile-NH2] (Ac-CPPYLPKYLCDLI-NH2; disulfide 1-10; lactam 7-11)
- Effect on Ro 25-1553-induced changes in soma size, branch number and dendrite length ([1]; KS-133 simultaneously with Ro 25-1553, P1-14): counteracted
- Sholl analysis, effect on Ro 25-1553-induced morphological abnormalities of apical and basal dendrites ([1]; KS-133 with Ro 25-1553, prefrontal cortex): prevented the morphological abnormalities

Reference: paper PMC8607231, “Generation of KS-133 as a Novel Bicyclic Peptide with a Potent and Selective VIPR2 Antagonist Activity that Counteracts Cognitive Decline in a Mouse Model of Psychiatric Disorders” (Frontiers in Pharmacology, 2021)
